Assay results from ChEMBL document CHEMBL1909046, “DrugMatrix in vitro pharmacology data”.

Legend:
[1] = DRUGMATRIX: Phorbol Ester radioligand binding (ligand: [3H] PDBu); type: cell membranes, Mus musculus, ICR, Brain, Membrane; conditions: Not Active = under 50% inhibition at 10 µM
[2] = target: T1, Alpha-1B adrenergic receptor (Rattus norvegicus, UniProt P15823); assay: DRUGMATRIX: Alpha-1B adrenergic receptor radioligand binding (ligand: prazosin); type: cell membranes, Wistar, Liver, Membrane; conditions: Not Active = under 50% inhibition at 10 µM
T1 sequence (P15823 whole entry): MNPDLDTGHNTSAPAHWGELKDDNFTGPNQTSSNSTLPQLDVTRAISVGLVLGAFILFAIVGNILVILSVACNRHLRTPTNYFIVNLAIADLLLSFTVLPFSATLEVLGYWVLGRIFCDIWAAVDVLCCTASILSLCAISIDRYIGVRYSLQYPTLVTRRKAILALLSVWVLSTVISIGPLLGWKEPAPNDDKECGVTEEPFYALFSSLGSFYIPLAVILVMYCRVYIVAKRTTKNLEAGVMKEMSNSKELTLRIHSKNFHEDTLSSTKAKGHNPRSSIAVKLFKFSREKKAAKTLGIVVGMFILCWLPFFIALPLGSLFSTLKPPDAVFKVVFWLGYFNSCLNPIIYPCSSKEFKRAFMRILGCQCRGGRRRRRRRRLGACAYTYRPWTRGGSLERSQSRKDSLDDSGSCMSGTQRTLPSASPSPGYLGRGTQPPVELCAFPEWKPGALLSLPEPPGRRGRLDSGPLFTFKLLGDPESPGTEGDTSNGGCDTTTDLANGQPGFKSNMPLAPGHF

[3] = DRUGMATRIX: beta-Lactamase enzyme inhibition (substrate: Nitrocefin); parameters: species or system Bacillus cereus; conditions: Not Active = under 50% inhibition at 10 µM
[4] = target: Mitogen-activated protein kinase 14 (Homo sapiens, UniProt Q16539); parameters: species or system Escherichia coli;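 also: inhibition of p38alpha enzyme activity in a biochemical kinase assay, with myelin basic protein serving as substrate; in other assays of this panel Not Active means under 50% inhibition at 10 µM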
Vasopressin V1a receptor = Vasopressin V1a receptor (Homo sapiens, UniProt P37288); type: cell membranes, Membrane; conditions: hek293; also: in other assays of this panel Not Active means under 50% inhibition at 10 µM
[5] = DRUGMATRIX: ATPase, Na+/K+ enzyme inhibition (substrate: ATP); type: tissue-based, Sus scrofa, Heart; conditions: Not Active = under 50% inhibition at 10 µM
[6] = target: T2, Alpha-1D adrenergic receptor (Homo sapiens, UniProt P25100); type: cell membranes, HEK293, Membrane; conditions: hek293; also: in other assays of this panel Not Active means under 50% inhibition at 10 µM
T2 sequence (P25100 whole entry): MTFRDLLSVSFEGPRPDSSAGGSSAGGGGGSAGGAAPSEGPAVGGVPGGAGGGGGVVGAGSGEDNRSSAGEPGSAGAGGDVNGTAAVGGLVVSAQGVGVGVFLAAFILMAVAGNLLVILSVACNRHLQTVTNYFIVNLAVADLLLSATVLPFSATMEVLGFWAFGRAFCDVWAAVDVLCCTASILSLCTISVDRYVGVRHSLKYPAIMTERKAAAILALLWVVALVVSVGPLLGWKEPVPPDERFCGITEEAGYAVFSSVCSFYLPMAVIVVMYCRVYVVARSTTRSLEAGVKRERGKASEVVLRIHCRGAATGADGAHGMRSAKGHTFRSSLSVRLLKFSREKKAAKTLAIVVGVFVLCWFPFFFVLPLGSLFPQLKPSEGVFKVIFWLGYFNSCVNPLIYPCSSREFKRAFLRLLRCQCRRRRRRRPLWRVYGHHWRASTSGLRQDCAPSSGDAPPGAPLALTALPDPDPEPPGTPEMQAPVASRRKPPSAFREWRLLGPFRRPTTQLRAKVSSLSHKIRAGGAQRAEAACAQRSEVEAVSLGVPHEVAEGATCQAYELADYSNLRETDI

Mitogen-activated protein kinase 14, sequence (Q16539 whole entry): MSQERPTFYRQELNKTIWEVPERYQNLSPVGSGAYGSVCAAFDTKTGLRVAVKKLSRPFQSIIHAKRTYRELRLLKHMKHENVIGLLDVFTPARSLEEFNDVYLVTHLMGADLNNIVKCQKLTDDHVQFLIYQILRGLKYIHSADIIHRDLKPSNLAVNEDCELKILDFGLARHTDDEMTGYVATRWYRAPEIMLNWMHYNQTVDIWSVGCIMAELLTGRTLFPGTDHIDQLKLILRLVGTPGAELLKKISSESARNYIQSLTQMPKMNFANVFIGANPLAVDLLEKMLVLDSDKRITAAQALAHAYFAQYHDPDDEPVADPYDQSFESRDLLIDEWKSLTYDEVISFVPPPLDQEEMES
Vasopressin V1a receptor, sequence (P37288 whole entry): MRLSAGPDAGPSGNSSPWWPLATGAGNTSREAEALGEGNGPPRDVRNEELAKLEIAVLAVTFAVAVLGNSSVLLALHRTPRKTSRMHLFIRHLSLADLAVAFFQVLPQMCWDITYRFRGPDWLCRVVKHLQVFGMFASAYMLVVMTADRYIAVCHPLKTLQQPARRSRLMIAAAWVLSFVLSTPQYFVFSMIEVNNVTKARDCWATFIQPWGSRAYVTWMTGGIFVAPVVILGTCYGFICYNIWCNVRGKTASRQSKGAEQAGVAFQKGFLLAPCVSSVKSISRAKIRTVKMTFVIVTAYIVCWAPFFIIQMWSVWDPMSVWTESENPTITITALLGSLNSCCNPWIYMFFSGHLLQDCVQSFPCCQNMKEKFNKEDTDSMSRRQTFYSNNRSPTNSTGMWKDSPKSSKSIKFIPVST

CCN1C[C@]2(COC)[C@H](O)C[C@H](OC)[C@@]34[C@@H]5C[C@@]6(O)[C@H](OC(=O)c7ccccc7)[C@@H]5[C@@](OC(C)=O)([C@@H]([C@H](OC)[C@H]23)[C@@H]14)[C@@H](O)[C@@H]6OC [ACONITINE]
Not Active: IC50 [1] | Ki [1] | IC50 [2] | IC50 [3] | Ki [3] | IC50 [4] | IC50 (Vasopressin V1a receptor) | IC50 [5] | Ki [5] | IC50 [6]

CCN1CCN(C(=O)N[C@@H](C(=O)N[C@@H]2C(=O)N3[C@@H]2SC(C)(C)[C@@H]3C(=O)O)c2ccccc2)C(=O)C1=O [PIPERACILLIN]
Not Active: IC50 [1] | Ki [1] | IC50 [2] | IC50 [3] | Ki [3] | IC50 [4] | IC50 (Vasopressin V1a receptor) | IC50 [5] | Ki [5] | IC50 [6]

O=C(O)c1ccccc1 [BENZOIC ACID]
Not Active: IC50 [1] | Ki [1] | IC50 [2] | IC50 [3] | Ki [3] | IC50 [4] | IC50 (Vasopressin V1a receptor) | IC50 [5] | Ki [5] | IC50 [6]

OC[C@H]1O[C@@H]2O[C@H]3[C@H](O)[C@@H](O)[C@@H](O[C@H]4[C@H](O)[C@@H](O)[C@@H](O[C@H]5[C@H](O)[C@@H](O)[C@@H](O[C@H]6[C@H](O)[C@@H](O)[C@@H](O[C@H]7[C@H](O)[C@@H](O)[C@@H](O[C@H]1[C@H](O)[C@H]2O)O[C@@H]7CO)O[C@@H]6CO)O[C@@H]5CO)O[C@@H]4CO)O[C@@H]3CO [ALFADEX]
Not Active: IC50 [1] | Ki [1] | IC50 [2] | IC50 [3] | Ki [3] | IC50 [4] | IC50 (Vasopressin V1a receptor) | IC50 [5] | Ki [5] | IC50 [6]

c1ccc2sc(SSc3nc4ccccc4s3)nc2c1 [BENZOTHIAZYL DISULFIDE]
Not Active: IC50 [1] | Ki [1] | IC50 [2] | IC50 [3] | Ki [3] | IC50 [4] | IC50 (Vasopressin V1a receptor) | IC50 [5] | Ki [5] | IC50 [6]

POVIDONE
Not Active: IC50 [1] | Ki [1] | IC50 [2] | Ki [2] | IC50 [3] | Ki [3] | IC50 [4] | Ki [4] | IC50 (Vasopressin V1a receptor) | Ki (Vasopressin V1a receptor) | IC50 [5] | Ki [5] | IC50 [6] | Ki [6]

C=CCO [ALLYL ALCOHOL]
Not Active: IC50 [1] | Ki [1] | IC50 [2] | IC50 [3] | Ki [3] | IC50 [4] | IC50 (Vasopressin V1a receptor) | IC50 [5] | Ki [5] | IC50 [6]

CHROMIC CHLORIDE
Not Active: IC50 [1] | Ki [1] | IC50 [2] | Ki [2] | IC50 [3] | Ki [3] | IC50 [4] | Ki [4] | IC50 (Vasopressin V1a receptor) | Ki (Vasopressin V1a receptor) | IC50 [5] | Ki [5] | IC50 [6] | Ki [6]

Clc1cc(Cl)c(OCC#CI)cc1Cl [HALOPROGIN]
Not Active: IC50 [1] | Ki [1] | IC50 [2] | IC50 [3] | Ki [3] | IC50 [4] | IC50 (Vasopressin V1a receptor) | IC50 [5] | Ki [5] | IC50 [6]

C[N+](C)(C)CCOP(=O)([O-])OC[C@H](O)CO
Not Active: IC50 [1] | Ki [1] | IC50 [2] | IC50 [3] | Ki [3] | IC50 [4] | IC50 (Vasopressin V1a receptor) | IC50 [5] | Ki [5] | IC50 [6]

COc1ccc(C[C@H](N)C(=O)N[C@H]2[C@@H](O)[C@H](n3cnc4c(N(C)C)ncnc43)O[C@@H]2CO)cc1 [PUROMYCIN]
Not Active: IC50 [1] | Ki [1] | IC50 [2] | IC50 [3] | Ki [3] | IC50 [4] | IC50 (Vasopressin V1a receptor) | IC50 [5] | Ki [5] | IC50 [6]
